According to PubChem BioAssay AID248 (DTP/NCI, 2004):
Several values for one entry are separate records, joined by “and”; a condition that tells them apart may be missing. Identical values can stand only once. Toxic doses and inconclusive results are not listed.

Tested on: L1210 leukemia ip in BDF1 mice, survival T/C
Test: NCI In Vivo Anticancer Drug Screen. Data for tumor model L1210 Leukemia (intraperitoneal) in B6D2F1 (BDF1) mice
Conditions: higher = longer survival
Method in brief: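 Value reflects the ratio of survival in compound-treated mice to survival in vehicle-treated controls, with both groups carrying the same transplanted tumor.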

Structure (SMILES): CC[C@H]1CN2CCc3cc(OC)c(OC)cc3[C@@H]2C[C@@H]1C[C@H]1NCCc2cc(OC)c(OC)cc21
- T/C (endpoint: mean survival time, dose: 0.93 mg/kg/injection, schedule: Q04DX003 (ip), vehicle: water): 108 % of control
- T/C (endpoint: mean survival time, dose: 1.0 mg/kg/injection, schedule: Q01DX009 (ip), vehicle: saline): 109 % of control
- T/C (endpoint: mean survival time, dose: 1.75 mg/kg/injection, schedule: Q01DX009 (ip), vehicle: saline): 115 % of control and 121 % of control
- T/C (endpoint: mean survival time, dose: 1.8 mg/kg/injection, schedule: Q01DX009 (ip), vehicle: saline): 104 % of control and 120 % of control
- T/C (endpoint: mean survival time, dose: 1.86 mg/kg/injection, schedule: Q04DX003 (ip), vehicle: water): 105 % of control
- T/C (endpoint: mean survival time, dose: 1.88 mg/kg/injection, schedule: Q01DX001 (ip), vehicle: water): 102 % of control
- T/C (endpoint: mean survival time, dose: 2.0 mg/kg/injection, schedule: Q01DX005 (iv), vehicle: saline): 108 % of control
- T/C (endpoint: mean survival time, dose: 2.0 mg/kg/injection, schedule: Q01DX005 (oral), vehicle: saline): 103 % of control
- T/C (endpoint: mean survival time, dose: 2.0 mg/kg/injection, schedule: Q01DX005 (sc), vehicle: saline): 105 % of control
- T/C (endpoint: mean survival time, dose: 2.0 mg/kg/injection, schedule: Q01DX006 (ip), vehicle: saline): 112 % of control
- T/C (endpoint: mean survival time, dose: 2.0 mg/kg/injection, schedule: Q01DX009 (ip), vehicle: saline): 108 % of control
- T/C (endpoint: mean survival time, dose: 2.0 mg/kg/injection, schedule: Q04DX003 (ip), vehicle: saline): 100 % of control
- T/C (endpoint: mean survival time, dose: 2.0 mg/kg/injection, schedule: Q04DX003 (iv), vehicle: saline): 110 % of control
- T/C (endpoint: mean survival time, dose: 2.0 mg/kg/injection, schedule: Q04DX003 (oral), vehicle: saline): 110 % of control
- T/C (endpoint: mean survival time, dose: 2.0 mg/kg/injection, schedule: Q04DX003 (sc), vehicle: saline): 106 % of control
- T/C (endpoint: mean survival time, dose: 2.0 mg/kg/injection, schedule: Q08DX002 (iv), vehicle: saline): 106 % of control
- T/C (endpoint: mean survival time, dose: 2.0 mg/kg/injection, schedule: Q08DX002 (oral), vehicle: saline): 103 % of control
- T/C (endpoint: mean survival time, dose: 2.5 mg/kg/injection, schedule: Q04DX003 (ip), vehicle: water): 104 % of control
- T/C (endpoint: mean survival time, dose: 3.0 mg/kg/injection, schedule: Q01DX009 (oral), vehicle: saline): 112 % of control
- T/C (endpoint: mean survival time, dose: 3.75 mg/kg/injection, schedule: Q01DX001 (ip), vehicle: water): 103 % of control
- T/C (endpoint: mean survival time, dose: 3.75 mg/kg/injection, schedule: Q04DX003 (ip), vehicle: water): 104 % of control
- T/C (endpoint: mean survival time, dose: 4.0 mg/kg/injection, schedule: Q01DX009 (ip), vehicle: saline): 97 % of control
- T/C (endpoint: mean survival time, dose: 4.0 mg/kg/injection, schedule: Q04DX003 (ip), vehicle: water): 113 % of control and 116 % of control and 117 % of control
- T/C (endpoint: mean survival time, dose: 4.0 mg/kg/injection, schedule: Q04DX003 (iv), vehicle: saline): 108 % of control
- T/C (endpoint: mean survival time, dose: 4.0 mg/kg/injection, schedule: Q04DX003 (oral), vehicle: saline): 108 % of control
- T/C (endpoint: mean survival time, dose: 4.0 mg/kg/injection, schedule: Q04DX003 (sc), vehicle: saline): 110 % of control
- T/C (endpoint: mean survival time, dose: 4.0 mg/kg/injection, schedule: Q08DX002 (ip), vehicle: saline): 112 % of control
- T/C (endpoint: mean survival time, dose: 4.0 mg/kg/injection, schedule: Q08DX002 (oral), vehicle: saline): 110 % of control
- T/C (endpoint: mean survival time, dose: 4.0 mg/kg/injection, schedule: Q08DX002 (sc), vehicle: saline): 108 % of control
- T/C (endpoint: mean survival time, dose: 4.0 mg/kg/injection, schedule: Q## X003 (ip), vehicle: saline): 115 % of control
- T/C (endpoint: mean survival time, dose: 5.0 mg/kg/injection, schedule: Q04DX003 (ip), vehicle: water): 109 % of control
- T/C (endpoint: mean survival time, dose: 6.0 mg/kg/injection, schedule: Q01DX009 (oral), vehicle: saline): 108 % of control
- T/C (endpoint: mean survival time, dose: 6.0 mg/kg/injection, schedule: Q01DX015 (ip), vehicle: saline): 102 % of control
- T/C (endpoint: mean survival time, dose: 7.5 mg/kg/injection, schedule: Q01DX001 (ip), vehicle: water): 106 % of control
- T/C (endpoint: mean survival time, dose: 8.0 mg/kg/injection, schedule: Q01DX006 (ip), vehicle: saline): 156 % of control
- T/C (endpoint: mean survival time, dose: 8.0 mg/kg/injection, schedule: Q04DX003 (ip), vehicle: water): 109 % of control and 124 % of control
- T/C (endpoint: mean survival time, dose: 8.0 mg/kg/injection, schedule: Q04DX003 (iv), vehicle: saline): 122 % of control
- T/C (endpoint: mean survival time, dose: 8.0 mg/kg/injection, schedule: Q04DX003 (oral), vehicle: saline): 116 % of control
- T/C (endpoint: mean survival time, dose: 8.0 mg/kg/injection, schedule: Q04DX003 (sc), vehicle: saline): 113 % of control
- T/C (endpoint: mean survival time, dose: 8.0 mg/kg/injection, schedule: Q08DX002 (ip), vehicle: saline): 120 % of control
- T/C (endpoint: mean survival time, dose: 8.0 mg/kg/injection, schedule: Q08DX002 (oral), vehicle: saline): 110 % of control
- T/C (endpoint: mean survival time, dose: 8.0 mg/kg/injection, schedule: Q08DX002 (sc), vehicle: saline): 111 % of control
- T/C (endpoint: mean survival time, dose: 8.0 mg/kg/injection, schedule: Q## X002 (ip), vehicle: saline): 118 % of control
- T/C (endpoint: mean survival time, dose: 8.0 mg/kg/injection, schedule: Q## X003 (ip), vehicle: saline): 123 % of control
- T/C (endpoint: mean survival time, dose: 8.0 mg/kg/injection, schedule: Q## X008 (ip), vehicle: saline): 110 % of control
- T/C (endpoint: mean survival time, dose: 8.0 mg/kg/injection, schedule: Q## X024 (ip), vehicle: saline): 117 % of control
- T/C (endpoint: mean survival time, dose: 9.0 mg/kg/injection, schedule: Q01DX Z (ip), vehicle: methylcellulose (MC)): 92 % of control
- T/C (endpoint: mean survival time, dose: 10.0 mg/kg/injection, schedule: Q04DX009 (ip), vehicle: water): 121 % of control
- T/C (endpoint: mean survival time, dose: 15.0 mg/kg/injection, schedule: Q01DX001 (ip), vehicle: water): 117 % of control
- T/C (endpoint: mean survival time, dose: 15.0 mg/kg/injection, schedule: Q04DX003 (ip), vehicle: Klucel (hydroxypropylcellulose) (HPC)): 152 % of control
- T/C (endpoint: mean survival time, dose: 15.0 mg/kg/injection, schedule: Q04DX009 (ip), vehicle: water): 160 % of control
- T/C (endpoint: mean survival time, dose: 16.0 mg/kg/injection, schedule: Q01DX001 (ip), vehicle: saline): 121 % of control
- T/C (endpoint: mean survival time, dose: 16.0 mg/kg/injection, schedule: Q04DX003 (ip), vehicle: water): 161 % of control
- T/C (endpoint: mean survival time, dose: 16.0 mg/kg/injection, schedule: Q## X003 (ip), vehicle: saline): 171 % of control
- T/C (endpoint: mean survival time, dose: 20.0 mg/kg/injection, schedule: Q04DX003 (ip), vehicle: Klucel (hydroxypropylcellulose) (HPC)): 162 % of control and 164 % of control
- T/C (endpoint: mean survival time, dose: 20.0 mg/kg/injection, schedule: Q04DX009 (ip), vehicle: water): 168 % of control
- T/C (endpoint: mean survival time, dose: 22.2 mg/kg/injection, schedule: Q01DX001 (ip), vehicle: carboxymethylcellulose (CMC)): 102 % of control
- T/C (endpoint: mean survival time, dose: 25.0 mg/kg/injection, schedule: Q04DX003 (ip), vehicle: saline with Tween-80): 164 % of control
- T/C (endpoint: mean survival time, dose: 25.0 mg/kg/injection, schedule: Q04DX009 (ip), vehicle: water): 118 % of control
- T/C (endpoint: mean survival time, dose: 30.0 mg/kg/injection, schedule: Q04DX003 (ip), vehicle: Klucel (hydroxypropylcellulose) (HPC)): 95 % of control and 107 % of control
- T/C (endpoint: mean survival time, dose: 30.0 mg/kg/injection, schedule: Q04DX003 (ip), vehicle: saline with Tween-80): 115 % of control
- T/C (endpoint: mean survival time, dose: 32.0 mg/kg/injection, schedule: Q04DX003 (ip), vehicle: water): 154 % of control
- T/C (endpoint: mean survival time, dose: 32.0 mg/kg/injection, schedule: Q08DX002 (ip), vehicle: saline): 152 % of control
- T/C (endpoint: mean survival time, dose: 33.35 mg/kg/injection, schedule: Q01DX001 (ip), vehicle: carboxymethylcellulose (CMC)): 107 % of control
- T/C (endpoint: median survival time, dose: 3.75 mg/kg/injection, schedule: Q04DX003 (ip), vehicle: saline): 116 % of control
- T/C (endpoint: median survival time, dose: 4.0 mg/kg/injection, schedule: Q04DX003 (ip), vehicle: saline): 103 % of control
- T/C (endpoint: median survival time, dose: 7.5 mg/kg/injection, schedule: Q04DX003 (ip), vehicle: saline): 122 % of control
- T/C (endpoint: median survival time, dose: 8.0 mg/kg/injection, schedule: Q01DX001 (ip), vehicle: saline): 112 % of control
- T/C (endpoint: median survival time, dose: 15.0 mg/kg/injection, schedule: Q04DX003 (ip), vehicle: saline): 161 % of control and 168 % of control
- T/C (endpoint: median survival time, dose: 16.0 mg/kg/injection, schedule: Q04DX003 (ip), vehicle: saline): 166 % of control
- T/C (endpoint: median survival time, dose: 20.0 mg/kg/injection, schedule: Q04DX003 (ip), vehicle: saline): 177 % of control and 179 % of control
- T/C (endpoint: median survival time, dose: 30.0 mg/kg/injection, schedule: Q04DX003 (ip), vehicle: saline): 101 % of control
- T/C (endpoint: median survival time, dose: 32.0 mg/kg/injection, schedule: Q04DX003 (ip), vehicle: saline): 110 % of control
- T/C (endpoint: median survival time, dose: 40.0 mg/kg/injection, schedule: Q04DX003 (ip), vehicle: saline): 69 % of control

Structure (SMILES): CCOC(=O)CN(C)c1ccccc1
- T/C (endpoint: mean survival time, dose: 50.0 mg/kg/injection, schedule: Q01DX001 (ip), vehicle: carboxymethylcellulose (CMC)): 104 % of control
- T/C (endpoint: mean survival time, dose: 100.0 mg/kg/injection, schedule: Q01DX001 (ip), vehicle: carboxymethylcellulose (CMC)): 107 % of control
- T/C (endpoint: mean survival time, dose: 200.0 mg/kg/injection, schedule: Q01DX001 (ip), vehicle: carboxymethylcellulose (CMC)): 93 % of control
- T/C (endpoint: mean survival time, dose: 400.0 mg/kg/injection, schedule: Q01DX001 (ip), vehicle: carboxymethylcellulose (CMC)): 107 % of control

Structure (SMILES): O=C1C(N2CC2)=C(N2CC2)C(=O)C(N2CC2)=C1N1CC1
- T/C (endpoint: mean survival time, dose: 0.12 mg/kg/injection, schedule: Q01DX001 (ip), vehicle: saline): 112 % of control

Structure (SMILES): Cc1ccc(NC(=S)N(C)C)cc1
- T/C (endpoint: mean survival time, dose: 100.0 mg/kg/injection, schedule: Q01DX009 (ip), vehicle: Klucel (hydroxypropylcellulose) (HPC)): 104 % of control
- T/C (endpoint: mean survival time, dose: 200.0 mg/kg/injection, schedule: Q01DX009 (ip), vehicle: Klucel (hydroxypropylcellulose) (HPC)): 108 % of control
- T/C (endpoint: mean survival time, dose: 400.0 mg/kg/injection, schedule: Q01DX009 (ip), vehicle: Klucel (hydroxypropylcellulose) (HPC)): 108 % of control
